Laboratory results reported in article PMC8580996, “2-Oxoglutarate derivatives can selectively enhance or inhibit the activity of human oxygenases” (Nature Communications, 2021).
Where “and” joins values, the source holds several entries; their conditions need not be identical. Equal entries are not always repeated.

Experiments:
FIH [1] = biological target: T1, FIH (Homo sapiens, UniProt Q9NWT6); test: 1H NMR assay of FIH-catalyzed oxidative decarboxylation of cosubstrate, with SPE-MS of final mixture; type: biochemical; settings: 5 μM FIH, 150 μM CA1-20, 150 μM cosubstrate
T1 sequence (Q9NWT6 whole entry): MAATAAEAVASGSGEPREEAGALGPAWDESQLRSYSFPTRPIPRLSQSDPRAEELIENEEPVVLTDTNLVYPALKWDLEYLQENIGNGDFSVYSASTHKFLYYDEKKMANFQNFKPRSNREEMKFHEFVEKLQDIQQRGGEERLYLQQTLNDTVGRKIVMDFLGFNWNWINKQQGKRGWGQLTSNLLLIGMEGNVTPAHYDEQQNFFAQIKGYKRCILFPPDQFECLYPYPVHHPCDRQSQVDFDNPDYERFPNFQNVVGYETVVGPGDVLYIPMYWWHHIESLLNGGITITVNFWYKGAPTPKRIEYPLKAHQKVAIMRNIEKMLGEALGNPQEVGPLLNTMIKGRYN
Description: Supplementary Figure 2. […] FIH- […]
catalyzed oxidative decarboxylation of 2OG was monitored using a Bruker AVIII 700 NMR machine equipped with a 5 mm 1H(13C/15N) inverse cryoprobe; spectra were analyzed using the Bruker TopSpin 3.6.1 software.
50 μM ammonium iron(II) sulfate hexahydrate (FAS, (NH4)2Fe(SO4)2·6H2O) in 50 mM aqueous Tris-d11 containing 10% v/v D2O (pH 7.5, 25° C). The ratio of the CA 1-20 peptide and the hydroxylated CA 1-20(Ox) peptide, which is the product of the F IH-catalyzed hydroxylation reaction, was determined using SPE-MS after NMR […]
(a) Close-up (3.0-2.2 ppm) of the 1H NMR spectrum of commercial 2OG in 50 mM aqueous Tris-d11 containing 10%v/v D2O (pH 7.5, 25° C); (b) Close-up (3.0-2.2 ppm) of the 1H NMR spectrum of commercial succinate in 50 […]
FIH-catalyzed oxidative decarboxylation of 3-methyl-2OG (1) was monitored using a Bruker AVIII 700 NMR machine equipped with a 5 mm 1H(13C/15N) inverse cryoprobe; spectra were analyzed using the […]
Bruker TopSpin 3.6.1 software. […]
in 50 mM aqueous Tris -d11 containing 10% v/v D2O (pH 7.5, 25° C). The ratio of the CA 1-20 peptide and the hydroxylated CA 1-20(Ox) peptide, which is the product of the FIH -catalyzed hydroxylation reaction, was […]
(a) Close -up (3.4 -0.9 ppm) of the 1H NMR spectrum of synthetic 1 in 50 mM aqueous Tris-d11 containing 10% v/v D2O (pH 7.5, 2 5° C); ( b) Close -up (3.4 -0.9 ppm) of the 1H NMR spectrum of commercial 2 -methylsuccinate ( 36) […]
FIH-catalyzed oxidative decarboxylation of 4-methyl-2OG (12) was monitored using a Bruker AVIII 700 NMR machine equipped with a 5 mm 1H(13C/15N) inverse cryoprobe; spectra were analyzed using the Bruker TopSpin 3.6.1 software.
(NH4)2Fe(SO4)2·6H2O) in 50 mM aqueous Tris-d11 containing 10% v/v D2O (pH 7.5, 25° C). The ratio of the CA 1-20 peptide and the hydroxylated CA 1-20(Ox) peptide, which is the product of the FI H-catalyzed hydroxylation […]
(a) Close -up (3.3 -0.9 ppm) of the 1H NMR spectrum of synthetic 12 in 50 mM aqueous Tris-d11 containing 10% v/v D2O (pH 7.5, 25° C); ( b) Close -up (3.4 -0.9 ppm) of the 1H NMR spectrum of commercial 2 -methylsuccinate ( 36)

AspH [2] = biological target: T2, AspH (Homo sapiens, UniProt Q12797); test: Competition assay in a single reaction vessel, AspH-catalyzed hydroxylation (SPE-MS); type: biochemical; settings: for substrate hydroxylation (% conversion): AspH
T2 construct: the tetratricopeptide repeat domain (His6-AspH315-758), was produced and purified as previously reported; made in house
T2 sequence (Q12797 315-758): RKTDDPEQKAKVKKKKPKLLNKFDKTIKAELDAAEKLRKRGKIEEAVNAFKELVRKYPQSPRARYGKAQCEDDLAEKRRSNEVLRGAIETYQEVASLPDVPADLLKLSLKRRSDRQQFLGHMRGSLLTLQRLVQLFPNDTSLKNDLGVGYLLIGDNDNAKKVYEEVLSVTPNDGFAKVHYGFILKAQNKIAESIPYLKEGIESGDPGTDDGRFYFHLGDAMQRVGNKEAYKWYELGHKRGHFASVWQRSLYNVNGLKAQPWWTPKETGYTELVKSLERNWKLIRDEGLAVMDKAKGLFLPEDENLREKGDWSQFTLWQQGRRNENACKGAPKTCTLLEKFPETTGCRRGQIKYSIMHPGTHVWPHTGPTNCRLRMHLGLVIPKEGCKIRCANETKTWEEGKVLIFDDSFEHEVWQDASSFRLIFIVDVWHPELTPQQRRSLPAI

FIH [3] = biological target: T1, FIH; test: Competition assay in a single reaction vessel, FIH-catalyzed hydroxylation (SPE-MS); type: biochemical
Description: Mean of three independent runs (n = 3; mean ± SD). […] Cosubstrates: a 20 μM 2OG; b 20 μM 2OG; c 20 μM 1; d 20 μM 12; e 20 μM 12 and 100 μM 2OG; f 100 μM 14. Source data are provided as a Source Data file.
Mean of three independent runs (n = 3; mean ± SD). […] Source data are provided as a Source Data file.
Peptide turnover was monitored by SPE-MS using the same instrument configuration (with the exception that the peptides were eluted from the SPE cartridge with 0.1%v/v aqueous formic acid in 80/20 v/v acetonitrile/water) as described above.
FIH and AspH-catalyzed peptide hydroxylations were analyzed simultaneously using SPE-MS as described in the
Methods section; competition experiments were performed in the same reaction vessel using equimolar 2OG
oxygenase and substrate concentrations. […]
Source data are provided as a Source Data file.
FIH and AspH-catalyzed peptide hydroxylations were analyzed simultaneously using SPE-
MS as described in the Methods section; competition experiments were performed in the same reaction vessel
using equimolar 2OG oxygenase and substrate concentrations. […]
2OG, 100 μM 14. Source data are provided as a Source Data file.

AspH [4] = biological target: T2, AspH; parameters: method as in PMID 34163896; settings: hFX-CP101–119 substrate, 330 μM 2OG or 2OG derivative, t = 15 min; cited from earlier work
[5] = Fig 2e, 20 μM 12 and 100 μM 2OG

CC(CC(=O)C(=O)O)C(=O)O (stereo not shown) [compound 12, 4-methyl-2OG]
hydroxylation of CA1-20 peptide in final reaction mixture (SPE-MS) (FIH [1]; t = 10 min): > 95% | FIH-catalyzed conversion of cosubstrate to succinate / 2-methylsuccinate (1H NMR) (FIH [1]; within 5 min): ~ 65% | time to complete AspH-catalyzed hydroxylation of hFX-EGFD1_86–124-4Ser (AspH [2]; [5]): ~ 2 min | substrate hydroxylation (% conversion) (AspH [2]; Fig 2e, 20 μM 12 and 100 μM 2OG, 1.918 min): 100 | substrate hydroxylation (% conversion) (AspH [2]; Fig 2e, 20 μM 12 and 100 μM 2OG, 2.15883 min): 100 | substrate hydroxylation (% conversion) (AspH [2]; Fig 2e, 20 μM 12 and 100 μM 2OG, 2.6405 min): 100 | substrate hydroxylation (% conversion) (AspH [2]; Fig 2e, 20 μM 12 and 100 μM 2OG, 2.88117 min): 100 | substrate hydroxylation (% conversion) (AspH [2]; Fig 2e, 20 μM 12 and 100 μM 2OG, 3.12267 min): 100 | substrate hydroxylation (% conversion) (AspH [2]; Fig 2e, 20 μM 12 and 100 μM 2OG, 3.36583 min): 100 | substrate hydroxylation (% conversion) (AspH [2]; Fig 2e, 20 μM 12 and 100 μM 2OG, 3.60733 min): 100 | substrate hydroxylation (% conversion) (AspH [2]; Fig 2e, 20 μM 12 and 100 μM 2OG, […]): 100 | AspH-catalyzed hFX-EGFD1_86–124-4Ser hydroxylation (AspH [2]; Fig 2d, 20 μM 12, after ~10 min): ~ 90% | FIH-catalyzed CA1–20 conversion (FIH [3]; [5]): ~ 90% | substrate hydroxylation (% conversion) (FIH [3]; Fig 2e, 20 μM 12 and 100 μM 2OG, FIH, 0 min): 15.3987 and 14.8576 and 13.209 | substrate hydroxylation (% conversion) (FIH [3]; Fig 2e, 20 μM 12 and 100 μM 2OG, FIH, 0.237833 min): 27.0539 and 26.3778 and 23.9445 | substrate hydroxylation (% conversion) (FIH [3]; Fig 2e, 20 μM 12 and 100 μM 2OG, FIH, 0.478833 min): 35.9286 and 35.8922 and 32.7293 | substrate hydroxylation (% conversion) (FIH [3]; Fig 2e, 20 μM 12 and 100 μM 2OG, FIH, 0.717 min): 45.1159 and 43.9873 and 41.1347 | substrate hydroxylation (% conversion) (FIH [3]; Fig 2e, 20 μM 12 and 100 μM 2OG, FIH, 0.956333 min): 51.8274 | substrate hydroxylation (% conversion) (FIH [3]; Fig 2e, 20 μM 12 and 100 μM 2OG, FIH, 1.43767 min): 63.7405 and 62.295 and 59.0531 | substrate hydroxylation (% conversion) (FIH [3]; Fig 2e, 20 μM 12 and 100 μM 2OG, FIH, 1.67667 min): 68.2711 and 66.7748 and 63.7338 | substrate hydroxylation (% conversion) (FIH [3]; Fig 2e, 20 μM 12 and 100 μM 2OG, FIH, 1.918 min): 71.9325 and 70.2648 and 67.9993 | substrate hydroxylation (% conversion) (FIH [3]; Fig 2e, 20 μM 12 and 100 μM 2OG, FIH, 2.15883 min): 75.384 and 73.508 and 70.5367 | substrate hydroxylation (% conversion) (FIH [3]; Fig 2e, 20 μM 12 and 100 μM 2OG, FIH, 2.6405 min): 81.0929 and 78.2797 and 76.6153 | substrate hydroxylation (% conversion) (FIH [3]; Fig 2e, 20 μM 12 and 100 μM 2OG, FIH, 2.88117 min): 82.6978 and 80.7392 and 78.6776 | substrate hydroxylation (% conversion) (FIH [3]; Fig 2e, 20 μM 12 and 100 μM 2OG, FIH, 3.12267 min): 85.0838 and 82.5241 and 80.8532 | substrate hydroxylation (% conversion) (FIH [3]; Fig 2e, 20 μM 12 and 100 μM 2OG, FIH, 3.36583 min): 85.9652 and 84.4207 and 82.727 | substrate hydroxylation (% conversion) (FIH [3]; Fig 2e, 20 μM 12 and 100 μM 2OG, FIH, 3.60733 min): 87.7923 and 85.7936 and 83.2563 | substrate hydroxylation (% conversion) (FIH [3]; Fig 2e, 20 μM 12 and 100 μM 2OG, FIH, 3.849 min): 88.932 and 84.1653 and 80.7905 | substrate hydroxylation (% conversion) (FIH [3]; Fig 2d, 20 μM 12, FIH, 0 min): 8.164 and 7.161 and 7.808 | substrate hydroxylation (% conversion) (FIH [3]; Fig 2d, 20 μM 12, FIH, 0.707167 min): 31.5759 and 26.6674 and 29.4313 | substrate hydroxylation (% conversion) (FIH [3]; Fig 2d, 20 μM 12, FIH, 1.41317 min): 48.4989 and 42.8597 and 46.6007 | substrate hydroxylation (% conversion) (FIH [3]; Fig 2d, 20 μM 12, FIH, 2.12133 min): 61.9239 and 55.8625 and 59.591 | substrate hydroxylation (% conversion) (FIH [3]; Fig 2d, 20 μM 12, FIH, 2.822 min): 71.1548 and 65.8729 and 69.0603 | substrate hydroxylation (% conversion) (FIH [3]; Fig 2d, 20 μM 12, FIH, 3.52117 min): 77.6139 and 72.8151 and 76.4316 | substrate hydroxylation (% conversion) (FIH [3]; Fig 2d, 20 μM 12, FIH, 4.22083 min): 82.6095 and 78.8355 and 81.4405 | substrate hydroxylation (% conversion) (FIH [3]; Fig 2d, 20 μM 12, FIH, 4.9205 min): 86.3253 and 83.0223 and 85.6621 | substrate hydroxylation (% conversion) (FIH [3]; Fig 2d, 20 μM 12, FIH, 5.62167 min): 89.1149 and 86.1539 and 88.6579 | substrate hydroxylation (% conversion) (FIH [3]; Fig 2d, 20 μM 12, FIH, 6.3215 min): 91.4092 and 88.7795 and 90.8352 | substrate hydroxylation (% conversion) (FIH [3]; Fig 2d, 20 μM 12, FIH, 7.02117 min): 93.1171 and 89.921 and 92.1057 | substrate hydroxylation (% conversion) (FIH [3]; Fig 2d, 20 μM 12, FIH, 7.724 min): 94.3469 and 91.6232 and 93.2231 | substrate hydroxylation (% conversion) (FIH [3]; Fig 2d, 20 μM 12, FIH, 8.42383 min): 95.3806 and 92.9188 and 94.5877 | substrate hydroxylation (% conversion) (FIH [3]; Fig 2d, 20 μM 12, FIH, 9.1255 min): 96.194 and 94.1363 and 95.5545 | substrate hydroxylation (% conversion) (FIH [3]; Fig 2d, 20 μM 12, FIH, 9.83 min): 97.3851 and 94.9972 and 96.1755 | substrate hydroxylation (% conversion) (FIH [3]; Fig 2d, 20 μM 12, FIH, 10.5315 min): 98.7917 and 94.9441 and 95.9828 | FIH-catalyzed CA1–20 hydroxylation (FIH [3]; Fig 2d, 20 μM 12, after ~5 min): ~ 90% | AspH activity, %-substrate conversion (AspH [4]): ~10%
